The record followed here is patent US7041131B2, “Bioengineered vascular graft support prostheses” (Organogenesis, Inc., priority 1998, dated 2006).

Assay [1] concerns tube supported vein grafts. The assay is described as follows: Isometric tension studies on rings of tube supported vein grafts. On the set-up: species or system New Zealand male white rabbits. Particulars: for EC50: Oryctolagus cuniculus, 672 h, read-out: Sensitivity, -log10(EC50) (converted). The protocol: (§1) Twenty-nine New Zealand male white rabbits underwent interposition bypass grafting of the right common carotid artery using the reversed ipsilateral jugular vein. In the experimental group (n=15), once the proximal anastomosis was performed, the vein was passed through a collagen tube having dimensions of 4 mm in diameter and 35 to 40 mm in length and the distal anastomosis was then completed. Leaks were repaired and the collagen tube was fashioned to completely cover the vein graft, including both anastomoses. Control animals (n=14) were treated identically but without tube support. One intraoperative death resulted from an unrecognized leak in the mid-segment of a vein graft in the experimental group. Otherwise, there were no other significant complications such as infection or bleeding in either group. […] Postoperatively, the flow rate and intraluminal pressure in vein grafts were measured on either day 3 or 28 (n=5 per group). Vein grafts were harvested on day 3 for assessment of tyrosine phosphorylation by Western blot analysis (n=4 per group), and on day 28 for morphometric measurement (n=5 per group), scanning and transmission electron microscopy (n=5 per group) and isometric tension studies (n=5 per group). On the day of harvest, animals were anesthetized and subsequently sacrificed with an intravenous overdose of barbiturates.
(§2) Vein grafts were sectioned into four 5 mm rings. In the tube supported group, the collagen tube was carefully dissected off and removed to allow unimpeded vessel contraction and relaxation. Each ring was immediately mounted between two stainless steel hooks in 5 ml organ baths containing oxygenated Krebs solution (122 mM NaCl, 4.7 mM KCl, 1 2 mM MgCl2, 2.5 mM CaCl2, 15.4 mM NaHCO3, 1.2 mM KH2PO4 and 5.5 mM glucose, maintained at 37° C. and oxygenated with 95% O2 and 5% CO2), as previously described with some modifications. In brief, following equilibration, the resting tension was adjusted in increments from 0.5 to 1.25 gms and the maximal response to a modified oxygenated Krebs solution containing 60 mM KCl, 66.7 mM NaCl, 1.2 mM MgCl2, 2.5 mM CaCl2, 15.4 mM NaHCO3, 1.2 mM KH2PO4 and 5.5 mM glucose was measured to establish a length-tension relationship. Cumulative dose response curves to the contractile agonists bradykinin (10^−9 to 10^−5 M), norepinephrine (10^−9 to 10^−4 M), and serotonin (10^−9 to 10^−4 M) were performed. Relaxation responses to acetylcholine (10^−8 to 10^−4 M), an endothelium dependent agonist, and nitroprusside (10^−8 to 10^−4 M), an endothelium independent agonist, were assessed on rings precontracted with norepinephrine, at the concentration which produced 80% of maximal contraction. All rings were allowed to re-equilibrate for a minimum of 30 minutes between each experimental run and the same sequence of agonist testing was maintained for all experiments. (All chemicals were obtained from Sigma Chemical Co. (St Louis, Mo.)).
(§3) The concentration for the half maximal response (EC50) was calculated by logistic analysis and the sensitivity is defined as -log10(EC50). In each vein graft, the sensitivity was determined for each vessel ring (4 rings per vein graft) and the mean was taken as the value for that vein graft. Values shown are the mean±s.e.m (n=5 per group). Statistical differences between the tube supported vein grafts and control vein grafts were compared using the unpaired Student's t-test.

In the next assay the test system is control vein grafts. Description: Isometric tension studies on rings of control vein grafts. Also on record: species or system New Zealand male white rabbits. To be noted: for Sensitivity, -log10(EC50) / EC50: day 28 control vein grafts without tube support, mean±s.e.m, n=5; for EC50: Oryctolagus cuniculus, 672 h, read-out: Sensitivity, -log10(EC50) (converted). As to the method: as §1, §2, §3

[2] abbreviates: day 28 tube supported vein grafts, tube removed, mean±s.e.m, n=5.

Regarding `CC(=O)OCC[N+](C)(C)C` [Acetylcholine, acetylcholine], the EC50 in assay [1] (setting [2]) is 120000 nM. Besides, the Maximal relaxation in assay [1] (tube supported vein graft rings precontracted with norepinephrine) is recorded as 64 % of precontracted tension. For the same compound, the “Sensitivity, -log10(EC50)” value in the assay with control vein grafts is listed as “no response”.
Turning to `[Cl-].[K+]` [KCl], the Contractile force was determined as 300 ± 46 mg in assay [1] (60 mM KCl, tube supported vein grafts) and 280 ± 47 mg in the assay with control vein grafts (60 mM KCl, control vein grafts).
With `NC[C@H](O)c1ccc(O)c(O)c1` [Norepinephrine, norepinephrine], the results for the concentration giving a half-maximal response (EC50) (in assay [1] (setting [2]); in the assay on control vein grafts) were 1100 nM and 1070 nM, respectively.
On to `NCCc1c[nH]c2ccc(O)cc12` [Serotonin, serotonin], for which the EC50 is 407 nM in assay [1] (setting [2]) and 525 nM in the assay on control vein grafts.
With nitroprusside, the “Sensitivity, -log10(EC50)” value in assay [1] (setting [2]) was determined as 6.46 ± 0.12; in the assay on control vein grafts, 6.73 ± 0.19.

The EC50 is the concentration needed to bring the measured effect to its halfway point.
